Where “and” joins values, the source holds several entries; their conditions need not be identical. Equal entries are not always repeated. Where two headings read alike, the source gives them in different places. Marks after values point to notes of the source that are not given here.

The format of data set [1] is in vivo, Mus musculus. The method, then:
In this study, 36 healthy male Mus musculus (12–14 weeks old, 25–30 g) were used as subjects and obtained from GRU-Experimental Animals Laboratory. Albino mice were maintained in stainless steel cages, at 22 ± 3 °C and 55 ± 5% relative humidity, 12 h light/12 h dark cycle. All experiments were performed in accordance with the guidelines of the Animal Experiments Local Ethics Committee of Giresun University and approved by the Animal Ethics Committee of Giresun University (protocol number: 2017/02). This study was carried out in compliance with the ARRIVE guidelines. Six groups were formed with six mice in each group.
After the mice were stunned under halothane anesthesia, their body weights were measured before the administration period and at the end of the 28-day administration period. In addition, at the end of the 28th day, the liver and kidney organs of the sacrificed mice were isolated and their weights were measured.

The format of data set [2] is in vivo, Mus musculus. The method, then:
In order to interpret the changes in body weight and organ weights, the weekly feed consumption of the mice was measured. Albino mice can consume approximately 3–4 g of feed in a day[15]. In line with this information, 30 g of feed per day were put into the cages, with 5 g for each mouse in each group. Feed consumption was calculated by measuring the amount of feed remaining in the container at the end of the 7th day of each week during the 28-day application period.
This is another data set of the same source.

Data set [3] can be described thus: Serum parameters (AST, ALT, BUN, creatinine). It counts as in vivo, Mus musculus. Here is the method: Whole blood samples from mice stunned under halothane anesthesia were collected in vacuum tubes and centrifuged at 1200g at + 4 °C for 10 min. In serum obtained from blood, aspartate aminotransferase (AST, Teco Diagnostics, CAT. NO: A559–150), alanine aminotransferase (ALT, Teco Diagnostics, CAT. NO: A524–150), blood urea nitrogen (BUN, Teco Diagnostics, CAT. NO: B549–150) and creatinine (Teco Diagnostics) levels were measured on a Medispec 99M autoanalyzer using a commercial kit[16].

A further data set deals with liver and kidney tissues. The experiment in a line: Antioxidant/oxidant balance: MDA and GSH levels in kidney and liver. It is filed as in vivo, Mus musculus. The method, then: To determine the effects of AFM1 and t-rsv on antioxidant/oxidant balance, malondialdehyde and glutathione levels were measured in the kidney and liver. For this purpose, liver and kidney organs were isolated from each mouse sacrificed under halothane anesthesia and washed with a sterile solution. Liver and kidney organs were homogenized with cold 0.15 M KCl solution. Homogenates were centrifuged at 5000g and 4 °C for 1 h and MDA and GSH analyzes were performed in the supernatant.

Data set [4] deals with bone marrow cells. It is filed as in vivo, Mus musculus. Here is the method: (§1) The genotoxic effects of AFM1 and the genotoxicity reducing effects of t-rsv were determined by MN and CAs analyses. MN test was performed in erythrocyte, buccal mucosa epithelium and leukocyte cells. CAs analyzes were investigated in bone marrow cells. The cytotoxic effects of AFM1 and the cytotoxicity reducing effects of t-rsv were determined by MI in bone marrow cells.
CAs and MI analysis were determined in the bone marrow. For this aim, mice treated with 0.025% colchicine were sacrificed 2 h later under halothane anesthesia. Bone marrow obtained from the femurs of mice was aspirated, washed with the physiological solution and 0.075 M KCl was transferred. After fixation with Carnoy's solution, samples stained with Giemsa (5%) were examined under a microscope. […] In prepared slides, MI was determined as the percentage of dividing cells among 1000 nucleated cells for each group. Recovery effects (RE) of t-rsv against AFM1 induced genotoxicity were calculated by using Eq. (1). In determining RE, data belonging to Group VI, where t-rsv provided the highest healing effect, Group IV, in which AFM1 was treated alone, and the control group were used.1 RE%=D1-D2/D3-D2×100 D1: data of AFM1 + t-rsv treated group, D2: Data of AFM1 treated group, D3: data of control.

Data set [5] concerns bone marrow cells. It counts as in vivo, Mus musculus. Here is the method:
as §1
CAs and MI analysis were determined in the bone marrow. For this aim, mice treated with 0.025% colchicine were sacrificed 2 h later under halothane anesthesia. Bone marrow obtained from the femurs of mice was aspirated, washed with the physiological solution and 0.075 M KCl was transferred. After fixation with Carnoy's solution, samples stained with Giemsa (5%) were examined under a microscope. MI rates and CAs frequencies were determined in the prepared slides and 1.000 cells were analyzed for each group. In prepared slides, MI was determined as the percentage of dividing cells among 1000 nucleated cells for each group. Recovery effects (RE) of t-rsv against AFM1 induced genotoxicity were calculated by using Eq. (1). In determining RE, data belonging to Group VI, where t-rsv provided the highest healing effect, Group IV, in which AFM1 was treated alone, and the control group were used.1 RE%=D1-D2/D3-D2×100 D1: data of AFM1 + t-rsv treated group, D2: Data of AFM1 treated group, D3: data of control.
This is another data set of the same source.

In the next data set the test system is leukocyte cell nuclei. It is filed as in vivo, swiss albino mice. The method, then:
The protocol of Tice et al.[19] was performed for alkaline single cell gel electrophoresis with slight modifications. Slides were dipped in 1% normal melting point agarose for coating and allowed to dry at 37 °C. 10 µL of peripheral blood were added to 120 µL of 0.5% low-melting-point agarose at 37 °C, layered onto a coated slide, covered with a coverslip and left at 4 °C for 5 min. to solidify the agarose. The coverslip was removed and the slides were immersed into a lysis solution (2.5 M NaCl, 100 mm Na2EDTA, 10 mM Tris–HCl buffer, pH 10, 1% Triton X-100) for approximately 1 h. After lysis, the slides were transferred to a horizontal gel electrophoresis tank with a fresh and cooled alkaline buffer. After a 20 min. DNA unwinding period, electrophoresed at 0.86 V/cm (20 V, 300 mA) for 20 min. […] To prevent DNA damage, all steps were performed in low light and analyzed by fluorescence microscopy. Comets were analyzed with Comet Assay software version 1.2.3b[20] with the parameters of tail DNA length. A total of 600 cells were analyzed for each group, 100 in each animal for DNA damage. The extent of DNA damage was scored from 0 to 4 depending upon the level of DNA damage. […] The total DNA damage per group, expressed as arbitrary units, was calculated using Eq. (2).2 Arbitraryunit=∑i=04Nixi (i: degree of damage (0, 1, 2, 3, 4), Ni: the number of cells in i degree).

In data set [6] the test system is buccal mucosa epithelial cells. As to the kind of experiment: MN test in buccal mucosa epithelial cells. Particulars: 20 mg/kg t-rsv against 16 mg/kg AFM1. It counts as in vivo, Mus musculus. Here is the method:
as §1
For the MN test in the buccal mucosa epithelial cells, the mouths of the mice stunned with halothane anesthesia were rinsed with distilled water, and epithelial cells were taken from the left and right buccal mucosa and spread on the slide. Preparations fixed in methanol: acetic acid solution were stained with Fast Green and Feulgen then examined with a research microscope. For the MN test in erythrocytes, blood samples (5 µL) from the tail veins of mice stunned with halothane anesthesia were mixed with EDTA (3%) solution and spread on sterile slides. The preparations were fixed in ethanol (70%) for 2 min. were left to dry at 21 °C for 24 h. Slides were stained with Giemsa (5%) for 15 min. and analyzed under a microscope. For the leukocyte MN test, blood samples were obtained from each mouse and centrifuged at 5000 rpm for 10 min. 5 mL of 0.075 M KCl solution was transferred to the pellet. […]

In the next data set the test system is albino mice. The conditions noted are these: 10 mg/kg and 20 mg/kg doses.
For data set [7] the following is noted: in vivo; cited from earlier work.
The conditions of data set [8]: rabbit, in vivo; cited from earlier work.
Setting [9] is: Group II: 10 mg/kg b.w. t-rsv, 28 days.
The mark [10] stands for this setting: Group III: 20 mg/kg b.w. t-rsv, 28 days.
[11] abbreviates: Group II: 10 mg/kg b.w. t-rsv, 600 cells analyzed.
The mark [12] stands for this setting: Group III: 20 mg/kg b.w. t-rsv, 600 cells analyzed.

With `COc1cc2c(c3oc(=O)c4c(c13)CCC4=O)C1(O)C=COC1O2` (centres unmarked) [AFM1, Aflatoxin M1], in [1] (mouse, in vivo), the “decrease in kidney weight compared to the control group” value was 51.3% and the “decrease in liver weight compared to the control group” value was determined as 43.1%. In [1] (mouse, in vivo, iv, 16 mg/kg), the “Organ weight, kidney” value is recorded as 0.74 ± 0.15^d and the “Organ weight, liver” value was 1.50 ± 0.24^d. In addition, in data set [2] (mouse, in vivo, iv, 16 mg/kg), the “Feed consumption, 7th day” value was found to be 148.6; the “Feed consumption, 14th day” value was determined as 147.1; the “Feed consumption, 21st day” value came out at 131.1; the “Feed consumption, 28th day” value worked out at 119.8. In data set [3] (mouse, in vivo, iv, 16 mg/kg), the “increase in ALT level compared to the control group” value came out at 35.8%, the “increase in AST level compared to the control group” value turned out to be 33.6%, the “increase in BUN level compared to the control group” value is reported as 43.6% and the “increase in creatinine level compared to the control group” value was 58.4%. Besides, in the data set with liver and kidney tissues (mouse, in vivo), the “decrease of kidney GSH level compared to the control group” value was determined as 39.3%, the “decrease of liver GSH level compared to the control group” value is 63.7%, the “increase of kidney MDA level compared to the control group” value came out at 1.41 times and the “increase of liver MDA level compared to the control group” value is 1.22 times. Also, in the data set on bone marrow cells [4] (mouse, in vivo, iv, 16 mg/kg), the “CAs frequency, Acentric” value is 12.70 ± 0.94^a; the “CAs frequency, Break” value is 60.20 ± 4.38^a; the “CAs frequency, Dicentric” value is listed as 8.20 ± 0.84^a; the “CAs frequency, Fragment” value was 31.80 ± 3.12^a. In the data set on bone marrow cells [4] (mouse, in vivo, iv, 16 mg/kg), the “CAs frequency, Gap” value was 20.80 ± 2.65^a and the “CAs frequency, Ring” value is on record as 48.40 ± 4.15^a. In the data set with bone marrow cells [5] (mouse, in vivo), the “decrease in MI rate compared to the control group” value is 32.5%. In the data set on leukocyte cell nuclei (mouse, in vivo, iv, 16 mg/kg), the “average DNA damage score” value came to 255.67 ± 16.57. Also, the “decrease in body weight compared to the control group” value (mouse, in vivo) is reported as 17.5%. Moreover, under “mouse, in vivo, iv, 16 mg/kg”, the “FBW: Final body weight” value worked out at 41.38 ± 1.98 g; the “TWG: Total weight gain” value was 3.5 g and 3.50^d g.

In the case of `Oc1ccc(/C=C/c2cc(O)cc(O)c2)cc1` [t-rsv, trans-resveratrol], in data set [1] (setting [9]), the “Organ weight, kidney” value is recorded as 1.55 ± 0.30^a and the “Organ weight, liver” value is recorded as 2.62 ± 0.34^a. Also, in data set [1] (setting [10]), the “Organ weight, kidney” value was 1.53 ± 0.26^a and the “Organ weight, liver” value was 2.65 ± 0.42^a. Also, in data set [2] (Group II: 10 mg/kg b.w. t-rsv), the “Feed consumption, 7th day” value is recorded as 151.9; the “Feed consumption, 14th day” value was 152.7; the “Feed consumption, 21st day” value is on record as 155.7; the “Feed consumption, 28th day” value amounted to 153.2. Further, in data set [2] (Group III: 20 mg/kg b.w. t-rsv), the “Feed consumption, 7th day” value came to 157.6; the “Feed consumption, 14th day” value came out at 153.2; the “Feed consumption, 21st day” value stood at 155.6; the “Feed consumption, 28th day” value is recorded as 151.9. Moreover, the “protection against abnormalities in serum parameters” value in data set [3] (20 mg/kg t-rsv against AFM1) was 45.69–60.3%. In addition, in the data set with liver and kidney tissues (t-rsv with AFM1, liver and kidney, dose not stated), the “decrease in MDA level” value amounted to 16%. Also, the “RE, MN Buccosal” value in data set [6] is recorded as 48.9%. Moreover, the “reduction in CA types” value with bone marrow cells [4] (10 mg/kg and 20 mg/kg t-rsv treatment with AFM1) was 22.6–63.9%. In the data set with bone marrow cells [4] (20 mg/kg t-rsv with AFM1), the “reduction of gap formation” value came to 63.9%. Also, in the data set with bone marrow cells [4] (setting [11]), the “CAs frequency, Acentric” value is listed as 0.00 ± 0.00^d; the “CAs frequency, Break” value is reported as 0.00 ± 0.00^d; the “CAs frequency, Dicentric” value was 0.00 ± 0.00^d; the “CAs frequency, Fragment” value is 0.00 ± 0.00^d. In the data set on bone marrow cells [4] (setting [11]), the “CAs frequency, Gap” value is recorded as 0.00 ± 0.00^d. Further, in the data set with bone marrow cells [4] (setting [12]), the “CAs frequency, Acentric” value was 0.00 ± 0.00^d; the “CAs frequency, Break” value is listed as 0.00 ± 0.00^d; the “CAs frequency, Dicentric” value is recorded as 0.00 ± 0.00^d; the “CAs frequency, Fragment” value is listed as 0.00 ± 0.00^d. Further, the “CAs frequency, Gap” value in the data set with bone marrow cells [4] (setting [12]) was 0.00 ± 0.00^d. In the data set on bone marrow cells [5] (20 mg/kg t-rsv against 16 mg/kg AFM1), the “RE, MI Rate” value turned out to be 80.7%. In addition, the MI levels in the data set on bone marrow cells [5] (control group, 10 mg/kg, 20 mg/kg t-rsv-treated groups) is on record as 13.9–14.3%. In addition, the “DNA damage by t-rsv application alone” value in the data set with leukocyte cell nuclei (Group II and III vs control, p > 0.05) is given as “did not induce DNA damage”. Also, under setting [9], the “FBW: Final body weight” value came out at 49.91 ± 2.10 g and the “TWG: Total weight gain” value is 11.96^a g. Under setting [10], the “FBW: Final body weight” value was 50.66 ± 2.18 g and the “TWG: Total weight gain” value is recorded as 12.40^a g. In addition, the “toxic effect of resveratrol alone” value in the data set on albino mice is “did not have a toxic effect”.

Turning to Aflatoxin B1 [AFB1], the “reduction of weight gain compared to control” value in data set [7] was 33.94%. Moreover, the “body weight loss compared to the control group” value in data set [8] was “approximately 539 g”.

Turning to Aflatoxin G2 [AFG2], the “body weight loss compared to the control group” value in data set [8] is recorded as “approximately 539 g”.

These data come from article PMC9411558, “Toxicity mechanisms of aflatoxin M1 assisted with molecular docking and the toxicity-limiting role of trans-resveratrol” (Scientific Reports, 2022).
